# Measurements taken from US20060122165A1, “Crystalline cefdinir” (priority 2004, published 2006).
# Legend:
# [1] = conversion of crystalline form B into form C on exposure to humidity or aqueous medium; format: physicochemical
# From the text: In another aspect of the invention, crystalline form C of cefdinir can be obtained by conversion of the crystalline form B of cefdinir, obtainable as described in US 2003/0204082 in Example 1, into crystalline form C of cefdinir. Cefdinir form B is in the form of a hydrate.
# The equilibrating procedure of step a′) is preferably performed at a relative humidity of about 63% to about 75% , more preferably of about 65% to about 70%, such as of at 65% to 70%. Said equilibration may be performed in a gaseous atmosphere being e.g. air or nitrogen, preferably air having the above mentioned relative humidity. Above about 63% relative humidity, for example cefdinir form B crystals obtainable as described above convert to form C crystals. Form C crystals—once formed—are stable above a relative humidity of at least 45%.
# [2] = stability of crystalline form at environmental relative humidity; format: physicochemical; conditions: form maintained as trihydrate
structure (smiles),measurement,setting,value
"C=CC1=C(C(=O)O)N2C(=O)C(NC(=O)C(=NO)c3csc(N)n3)[C@H]2SC1 (stereo partly shown) [crystalline form B of cefdinir, 7-[2-(2-aminothiazol-4-yl)-2-hydroxyiminoacetamido]-3-vinyl-3-cephem-4-carboxylic acid]",relative humidity above which crystals convert to form C,[1]; equilibration in gaseous atmosphere (air or nitrogen),Above 63%
same,time for conversion into crystalline form C,[1]; exposure of pure crystalline form B to a relative humidity of at least about 65%,within minutes
same,time for conversion into crystalline form C,"[1]; exposure of pure form B crystals to an aqueous suspending medium, preferably water",within seconds
"C=CC1=C(C(=O)O)N2C(=O)C(NC(=O)C(=NO)c3csc(N)n3)[C@H]2SC1.O.O.O (stereo partly shown) [crystalline form C of cefdinir, 7-[2-(2-aminothiazol-4-yl)-2-hydroxyiminoacetamido]-3-vinyl-3-cephem-4-carboxylic acid trihydrate]",relative humidity of environmental conditions at which the crystal form is stable,[2],at least 45%
